The results in this text go back to US20240287124A1, “PRODRUGS OF 4'-SUBSTITUTED NUCLEOSIDE REVERSE TRANSCRIPTASE INHIBITORS” (Merck Sharp & Dohme LLC, priority 2023, published 2024).

The assay relates to HIV-1 wild-type (R8) virus. Nature of the assay: Viral KINetics in Green cells (VIKING) assay, HIV-1 replication in MT4-GFP reporter cells. It is filed as cell-based. Conditions: Human immunodeficiency virus 1, 10% normal human serum, MT4-GFP cells, HIV-1 wild-type (R8); read-out: Viking (10% NHS), IC50. The protocol:
Antiviral potency of the compounds was determined based on their ability to block HIV-1 replication in a GFP reporter cell line; this assay is referred to as Viral KINetics in Green cells or VIKING assay. HIV-1 replication was monitored using MT4-gag-GFP clone D3 (hereafter designate MT4-GFP) cells, which are MT4 cells modified to harbor a GFP reporter gene, the expression of which is dependent on the HIV-1 proteins tat and rev. (MT4 is a human T-cell line that is particularly sensitive to HIV-1 replication.) HIV-1 infection of MT4-GFP cells results in GFP expression approximately 24 h post-infection. MT4-GFP cells were maintained at 37° C./5% CO2/90% relative humidity in RPMI 1640 supplemented with 10% fetal bovine serum, 100 U/mL penicillin/streptomycin, and […] G418 to maintain the reporter gene. For infections, MT4-GFP cells were placed in the same medium lacking G418 and infected overnight with HIV-1 wild-type (R8) virus at an approximate multiplicity of infection of 0.01 in the same incubation conditions. Cells were then washed and resuspended in RPMI 1640 containing 10% normal human serum at 2×10^5 cells/mL. Compound plates were prepared by dispensing compounds dissolved in DMSO into wells of 384-well poly D lysine-coated plates (0.2 μl/well) using an ECHO acoustic dispenser. Each compound was tested in a 10-point serial 3-fold dilution (typical final concentrations: 4 μM-0.2 nM). Controls included no inhibitor (DMSO only) and a combination of three antiviral agents as a positive control (efavirenz, indinavir, and an integrase strand transfer inhibitor at final concentrations of 4 μM each). Infected cells were added (50 μL/well) to compound plates and were maintained at 37° C./5% CO2/90% relative humidity. Infected cells were quantified at two time points, approximately 48 h and 72 h post-infection, by counting the number of green cells in each well using an Acumen eX3 scanner. The increase in the number of green cells over ˜24 h period gives the reproductive ratio, R, which is calculated by dividing the number of green cells at 72 h over those at 48 h post-infection. The percent inhibition caused by a test compound is calculated using the following formula: […]
The dose-response curves of each test compound were plotted as % inhibition versus the compound concentration. IC50 values were determined by non-linear 4-parameter fitting of the dose-response curves.

As to `C#C[C@]1(CO)O[C@@H](n2ccc3c(NC(=O)CCC45CC6CC(CC(C6)C4)C5)nc(Cl)nc32)C[C@@H]1O` [Example 69, 3-(adamantan-1-yl)-N-(2-chloro-7-((2R,4S,5R)-5-ethynyl-4-hydroxy-5-(hydroxymethyl)tetrahydrofuran-2-yl)-7H-pyrrolo[2,3-d]pyrimidin-4-yl)propanamide], the IC50 stood at 10 nM.

With `C#C[C@]1(COC(=O)CCCC[C@@H]2SC[C@@H]3NC(=O)N[C@@H]32)O[C@@H](n2ccc3c(N)nc(Cl)nc32)C[C@@H]1OC(=O)OCC` [Example 196], the IC50 came to 27 nM.

With `C#C[C@]1(COC(=O)OCC23CC(C2)C3)O[C@@H](n2ccc3c(N)nc(Cl)nc32)C[C@@H]1OC(=O)OCC12CC(C1)C2` [Example 167], the IC50 turned out to be 7.2 nM.

On to `C#C[C@]1(COC(=O)[C@H](C)c2ccccc2)O[C@@H](n2ccc3c(N)nc(Cl)nc32)C[C@@H]1OC(=O)[C@H](C)c1ccccc1` [Example 98], for which the IC50 came out at 91 nM.

Regarding `C#C[C@]1(COC(=O)CC23CC(C2)C3)O[C@@H](n2ccc3c(N)nc(Cl)nc32)C[C@@H]1OC(=O)CC12CC(C1)C2` [Example 95], the IC50 worked out at 8.6 nM.

As to `C#C[C@]1(CO)O[C@@H](n2ccc3c(N)nc(Cl)nc32)C[C@@H]1OC(=O)OCC12CC(C1)C2` [Example 110], the IC50 was found to be 2.7 nM. As for `C#C[C@]1(COC(=O)OCC(C)(C)C)O[C@@H](n2ccc3c(N)nc(Cl)nc32)C[C@@H]1O` [Example 123], the figure is 4.1 nM. As to `C#C[C@]1(COC(=O)OCc2cccn(C)c2=O)O[C@@H](n2ccc3c(N)nc(Cl)nc32)C[C@@H]1O` [Example 208], the IC50 was determined as 4.4 nM. As for `C#C[C@]1(CO)O[C@@H](n2ccc3c(N)nc(Cl)nc32)C[C@@H]1OCOC(=O)OC(C)C` [Example 141], the figure is 3.5 nM. As for `C#C[C@]1(CO)O[C@@H](n2ccc3c(NC(=O)OCc4ccccc4)nc(Cl)nc32)C[C@@H]1O` [Example 72, benzyl (2-chloro-7-((2R,4S,5R)-5-ethynyl-4-hydroxy-5-(hydroxymethyl)tetrahydrofuran-2-yl)-7H-pyrrolo[2,3-d]pyrimidin-4-yl)carbamate], the figure is 544 nM; as for `C#C[C@]1(COC(=O)Cc2ccc(Cl)cc2)O[C@@H](n2ccc3c(NC(=O)CCc4ccccc4)nc(Cl)nc32)C[C@@H]1O` [Example 147], 55 nM; as for `C#C[C@]1(COC(=O)CC(C)(C)c2c(C)cc(C)cc2OC(C)=O)O[C@@H](n2ccc3c(N)nc(Cl)nc32)C[C@@H]1O` [Example 183], 2.7 nM.

Turning to `C#C[C@]1(COC(=O)C23CC(C2)C3)O[C@@H](n2ccc3c(N)nc(Cl)nc32)C[C@@H]1O` [Example 106], the IC50 is 2.5 nM.

Turning to `C#C[C@]1(CO)O[C@@H](n2ccc3c(N(C(=O)OCCCCCC)C(=O)OCCCCCC)nc(Cl)nc32)C[C@@H]1O` [Example 222], the IC50 turned out to be 1370 nM. The same measure for `C#C[C@]1(COC(=O)CCCCC)O[C@@H](n2ccc3c(N)nc(Cl)nc32)C[C@@H]1OC(=O)OCc1cccnc1` [Example 192]: 6.5 nM; for `C#C[C@]1(CO)O[C@@H](n2ccc3c(N(C(=O)OCCCCCCCC)C(=O)OCCCCCCCC)nc(Cl)nc32)C[C@@H]1O` [Example 224]: 842 nM. `C#C[C@]1(COC(=O)OCc2ccccc2)O[C@@H](n2ccc3c(NC(=O)CCc4ccccc4)nc(Cl)nc32)C[C@@H]1O` [Example 202]: the IC50 was 146 nM. The same measure for `C#C[C@]1(CO)O[C@@H](n2ccc3c(N)nc(Cl)nc32)C[C@@H]1OCOC(=O)c1ccccc1` [Example 139]: 3.6 nM; for `C#C[C@]1(COC(=O)OCCCCCCCCCC)O[C@@H](n2ccc3c(N)nc(Cl)nc32)C[C@@H]1OC(=O)OCCCCCCCCCC` [Example 92]: 3510 nM; for `C#C[C@]1(CO)O[C@@H](n2ccc3c(NC(=O)OCCCCCCCCCCCC)nc(Cl)nc32)C[C@@H]1O` [Example 219]: 2410 nM. For the molecule `C#C[C@]1(CO)O[C@@H](n2ccc3c(N)nc(Cl)nc32)C[C@@H]1OC(=O)OCC` [Example 155], the IC50 came out at 29 nM. For the molecule `C#C[C@]1(COC(=O)CC23CC(C2)C3)O[C@@H](n2ccc3c(N)nc(Cl)nc32)C[C@@H]1O` [Example 97], the IC50 turned out to be 1.6 nM. In the case of `C#C[C@]1(CO)O[C@@H](n2ccc3c(N)nc(Cl)nc32)C[C@@H]1OC(=O)OCCC12CC(C1)C2` [Example 111], the IC50 turned out to be 5.2 nM. Take `C#C[C@]1(COC(=O)OCc2ccn(C)c(=O)c2)O[C@@H](n2ccc3c(N)nc(Cl)nc32)C[C@@H]1O` [Example 131]: the IC50 worked out at 3.5 nM.

Turning to `C#C[C@]1(CO)O[C@@H](n2ccc3c(N)nc(Cl)nc32)C[C@@H]1OC(=O)[C@@H](C)c1ccccc1` [Example 102], the IC50 is 43 nM. The same measure for `C#C[C@]1(COC(=O)O[C@H](C)c2ccccc2)O[C@@H](n2ccc3c(N)nc(Cl)nc32)C[C@@H]1O` [Example 125]: 3.7 nM. `C#C[C@]1(COC(=O)OCc2ccc[nH]c2=O)O[C@@H](n2ccc3c(N)nc(Cl)nc32)C[C@@H]1OC(=O)OCc1ccccc1` [Example 94]: the IC50 came to 6.1 nM. As to `C#C[C@]1(COC(=O)CCCCC)O[C@@H](n2ccc3c(N)nc(Cl)nc32)C[C@@H]1OC(=O)CCCC[C@@H]1SC[C@@H]2NC(=O)N[C@@H]21` [Example 191], the IC50 was 20 nM. In the case of `C#C[C@]1(CO)O[C@@H](n2ccc3c(NC(=O)CCCc4ccccc4)nc(Cl)nc32)C[C@@H]1O` [Example 198], the IC50 was found to be 63 nM.

With `C#C[C@]1(COC(=O)OCc2cccnc2)O[C@@H](n2ccc3c(N)nc(Cl)nc32)C[C@@H]1OC(=O)OCc1ccccc1` [Example 85], the IC50 was found to be 3.2 nM. As to `C#C[C@]1(CO)O[C@@H](n2ccc3c(N)nc(Cl)nc32)C[C@@H]1OC(=O)OC` [Example 157], the IC50 was 20 nM. The same measure for `C#C[C@]1(COC(=O)CC23CC(C2)C3)O[C@@H](n2ccc3c(N)nc(Cl)nc32)C[C@@H]1OC(=O)OCCC12CC3CC(CC(C3)C1)C2` [Example 108]: 20 nM; for `C#C[C@]1(CO)O[C@@H](n2ccc3c(NC(=O)OCCCCCCCCCC)nc(Cl)nc32)C[C@@H]1O` [Example 71, Decyl(2-chloro-7-((2R,4S,5R)-5-ethynyl-4-hydroxy-5-(hydroxymethyl)tetrahydrofuran-2-yl)-7H-pyrrolo[2,3-d]pyrimidin-4-yl)carbamate]: 785 nM; for `C#C[C@]1(COC(=O)CCCC)O[C@@H](n2ccc3c(N)nc(Cl)nc32)C[C@@H]1OC(=O)CC` [Example 187]: 27 nM.

Regarding `C#C[C@]1(COC(=O)CCCCCCCC)O[C@@H](n2ccc3c(N)nc(Cl)nc32)C[C@@H]1O` [Example 118], the IC50 amounted to 4.3 nM. The same measure for `C#C[C@]1(COC(=O)OCCCc2ccccc2)O[C@@H](n2ccc3c(N)nc(Cl)nc32)C[C@@H]1O` [Example 128]: 3 nM; for `C#C[C@]1(CO)O[C@@H](n2ccc3c(NC(=O)OCCCCCC)nc(Cl)nc32)C[C@@H]1O` [Example 221]: 710 nM.

In the case of `C#C[C@]1(CO)O[C@@H](n2ccc3c(N)nc(Cl)nc32)C[C@@H]1OCOC(=O)C(C)C` [Example 140], the IC50 is 5 nM. The same measure for `C#C[C@]1(COC(=O)OCc2cccnc2)O[C@@H](n2ccc3c(N)nc(Cl)nc32)C[C@@H]1OC(=O)OCc1cccnc1` [Example 164]: 13 nM. The same measure for `C#C[C@]1(COC(=O)Cc2ccc(Cl)cc2)O[C@@H](n2ccc3c(N)nc(Cl)nc32)C[C@@H]1OC(=O)OCCC12CC3CC(CC(C3)C1)C2` [Example 107]: 74 nM; for `C#C[C@]1(COCOC(=O)c2ccccc2)O[C@@H](n2ccc3c(N)nc(Cl)nc32)C[C@@H]1OC(=O)c1ccccc1` [Example 138]: 41 nM; for `C#C[C@]1(CO)O[C@@H](n2ccc3c(NC(=O)CCCCCCC)nc(Cl)nc32)C[C@@H]1O` [Example 66, N-(2-chloro-7-((2R,4S,5R)-5-ethynyl-4-hydroxy-5-(hydroxymethyl)tetrahydrofuran-2-yl)-7H-pyrrolo[2,3-d]pyrimidin-4-yl)octanamide]: 197 nM. As for `C#C[C@]1(COC(=O)OCC23CC(C2)C3)O[C@@H](n2ccc3c(N)nc(Cl)nc32)C[C@@H]1OC(=O)OCCC12CC3CC(CC(C3)C1)C2` [Example 175], the figure is 34 nM; as for `C#C[C@]1(COCOC(=O)c2ccccc2)O[C@@H](n2ccc3c(N)nc(Cl)nc32)C[C@@H]1OCOC(=O)c1ccccc1` [Example 137], 4.5 nM.

What is called IC50 is the midpoint of a concentration-inhibition curve.
